The values below come from patent publication US11944622B2 (Annapurna Bio, Inc., priority 2018, dated 2024).

Each structure is given as a SMILES string.

Broadly, the EC50 is the concentration that produces a half-maximal response.

In the test the target is T1, APJ Receptor (Homo sapiens, UniProt P35414).
T1 sequence (P35414 1-380): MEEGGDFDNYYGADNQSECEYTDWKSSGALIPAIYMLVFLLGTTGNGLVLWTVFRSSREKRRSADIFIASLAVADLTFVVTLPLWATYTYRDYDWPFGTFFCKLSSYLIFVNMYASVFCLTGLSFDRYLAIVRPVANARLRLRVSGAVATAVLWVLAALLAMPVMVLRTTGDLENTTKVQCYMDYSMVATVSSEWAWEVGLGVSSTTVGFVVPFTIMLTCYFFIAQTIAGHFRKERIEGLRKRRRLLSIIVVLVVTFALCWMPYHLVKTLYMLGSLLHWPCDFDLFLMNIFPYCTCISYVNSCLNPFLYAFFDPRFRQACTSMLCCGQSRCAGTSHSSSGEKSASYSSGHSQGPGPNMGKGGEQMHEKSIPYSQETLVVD
Briefly: APJ cAMP assay (DiscoverX enzyme fragment complementation; inhibition of forskolin-stimulated cAMP). It counts as cell-based. Conditions: CHO-K1 cell line stably expressing the APJ Receptor; EC80 forskolin; 30 minutes at 37° C.; read-out: Potency Range (APJ cAMP EC50). From the text:
Activation of APJ receptor is known to inhibit forskolin-stimulated cyclic AMP (cAMP) production in cells in a pertussis toxin-sensitive manner which indicates primary coupling to the GαI subunit of the G protein heterotrimeric complex. In addition to signaling through G protein and inhibition of cAMP, APJ receptor activation also results in β-arrestin recruitment, receptor internalization and activation of extracellular-regulated kinases (ERKs).
In order to optimize functional activity directed toward Gi coupling we utilized a CHO-K 1 cell line developed by DiscoverX stably expressing the APJ Receptor. Cells expressing APJR receptor were plated in a 384-well microtiter plates and incubated overnight at 37° C. with 5% CO2 to allow the cells to attach and grow. Media was then aspirated from the cells and replaced with 15 uL 2:1 Hanks Balanced Salt Solution (HBSS)/10 mM Hepes:cAMP XS+Ab reagent. Five microliters (5 uL) of previously generated compound sample stocks at 4× final concentration in assay buffer containing 4× EC80 forskolin were then added to the cells and allowed to incubate at 37° C. for 30 minutes.
After incubation the assay signal was generated using a technology termed enzyme fragment complementation (EFC). In EFC the enzyme B-galactosidase is split into two complementary portions (EA and ED). The fragment ED is fused to cAMP and in the assay format competes with endogenous cAMP for binding to a cAMP specific antibody. Activated B-Gal is formed when exogenous EA fragment binds to free ED-cAMP (not bound to cAMP specific antibody). Activated enzyme levels are detected through conversion of B-gal chemiluminescent substrate which generates a detectable luminescence signal and read on standard microtiter plate.
The methodology for detection of cAMP using EFC requires incubation with 20 uL of cAMP XS+ED/CL lysis cocktail for one hour followed by incubation with 20 uL cAMP XS+EA reagent for three hours at room temperature. Microplates were read following signal generation with a PerkinElmer Envision instrument utilizing chemiluminescent signal detection.
Compound activity was analyzed using CBIS data analysis suite (ChemInnovation, CA). Percentage activity was calculated using the following formula: % Activity=100%×(1−(mean RLU of test sample−mean RLU of Max control)/(mean RLU of vehicle control−mean RLU of Max control))
A general note: cAMP levels reflect the balance of adenylyl cyclase and phosphodiesterase activity.
Regarding `CCOc1cccc(-c2nc3ncc(NS(C)(=O)=O)nc3n2-c2c(OC)ccnc2OC)n1` (atropisomer, axis not shown) [Example 84, N-(1-(2,4-Dimethoxypyridin-3-yl)-2-(6-ethoxypyridin-2-yl)-1H-imidazo[4,5-b]pyrazin-6-yl)methanesulfonamide], the EC50 is 1 to 100 nM.
With `CCOc1cccc(-c2nc3ncc(NS(C)(=O)=O)nc3n2-c2c(OC)ccnc2OC)n1` (atropisomer, axis not shown) [Example 85, N-(1-(2,4-Dimethoxypyridin-3-yl)-2-(6-ethoxypyridin-2-yl)-1H-imidazo[4,5-b]pyrazin-6-yl)methanesulfonamide] the figure was 100 to 10000 nM; with `CCOc1cccc(-c2nc3ncc(Br)nc3n2-c2c(OC)cccc2OC)n1` [Example 1, 6-bromo-1-(2,6-dimethoxyphenyl)-2-(6-ethoxypyridin-2-yl)-1H-imidazo[4,5-b]pyrazine], 100 to 10000 nM; with `CCOc1cccc(-c2nc3ncc(NS(C)(=O)=O)nc3n2-c2c(OC)cccc2OC)n1` [Example 2, N-(1-(2,6-dimethoxyphenyl)-2-(6-ethoxypyridin-2-yl)-1H-imidazo[4,5-b]pyrazin-6-yl)methanesulfonamide], 1 to 100 nM.
Next, `CCOc1cccc(-c2nc3ncc(NS(=O)(=O)Cc4ccccc4)nc3n2-c2c(OC)cccc2OC)n1` [Example 3, N-(1-(2,6-dimethoxyphenyl)-2-(6-ethoxypyridin-2-yl)-1H-imidazo[4,5-b]pyrazin-6-yl)-1-phenylmethanesulfonamide]: 1 to 100 nM; `CCOc1cccc(-c2nc3ncc(NS(=O)(=O)CC4CC4)nc3n2-c2c(OC)cccc2OC)n1` [Example 4, 1-cyclopropyl-N-(1-(2,6-dimethoxyphenyl)-2-(6-ethoxypyridin-2-yl)-1H-imidazo[4,5-b]pyrazin-6-yl)methanesulfonamide]: 1 to 100 nM; `CCOc1cccc(-c2nc3ncc(NS(=O)(=O)c4ccccc4)nc3n2-c2c(OC)cccc2OC)n1` [Example 5, N-(1-(2,6-dimethoxyphenyl)-2-(6-ethoxypyridin-2-yl)-1H-imidazo[4,5-b]pyrazin-6-yl)benzenesulfonamide]: less than 1 nM.
Consider `CCOc1cccc(-c2nc3ncc(C#Cc4ccccc4)nc3n2-c2c(OC)cccc2OC)n1` [Example 6, 1-(2,6-dimethoxyphenyl)-2-(6-ethoxypyridin-2-yl)-6-(phenylethynyl)-1H-imidazo[4,5-b]pyrazine], for which the EC50 was in the range of 100 to 10000 nM.
Turning to `CCOc1cccc(-c2nc3ncc(CCc4ccccc4)nc3n2-c2c(OC)cccc2OC)n1` [Example 7, 1-(2,6-dimethoxyphenyl)-2-(6-ethoxypyridin-2-yl)-6-phenethyl-1H-imidazo[4,5-b]pyrazine], the EC50 was 1 to 100 nM.
With `CCOc1cccc(-c2nc3ncc(C(=O)NCc4ccccc4)nc3n2-c2c(OC)cccc2OC)n1` [Example 8, N-Benzyl-1-(2,6-dimethoxyphenyl)-2-(6-ethoxypyridin-2-yl)-1H-imidazo[4,5-b]pyrazine-6-carboxamide] the figure was 100 to 10000 nM.
Next, `CCOc1cccc(-c2nc3ncc(NC)nc3n2-c2c(OC)cccc2OC)n1` [Example 9, 1-(2,6-dimethoxyphenyl)-2-(6-ethoxypyridin-2-yl)-N-methyl-1H-imidazo[4,5-b]pyrazin-6-amine]: 1 to 100 nM; `CCOc1cccc(-c2nc3ncc(N)nc3n2-c2c(OC)cccc2OC)n1` [Example 10, 1-(2,6-dimethoxyphenyl)-2-(6-ethoxypyridin-2-yl)-1H-imidazo[4,5-b]pyrazin-6-amine]: 1 to 100 nM.
On to `CCOc1cccc(-c2nc3ncc(N(Cc4ccccc4)Cc4ccccc4)nc3n2-c2c(OC)cccc2OC)n1` [Example 11, N,N-dibenzyl-1-(2,6-dimethoxyphenyl)-2-(6-ethoxypyridin-2-yl)-1H-imidazo[4,5-b]pyrazin-6-amine], for which the EC50 was 1 to 100 nM.
Next, `CCOc1cccc(-c2nc3ncc(N(C)C)nc3n2-c2c(OC)cccc2OC)n1` [Example 12, 1-(2,6-dimethoxyphenyl)-2-(6-ethoxypyridin-2-yl)-N,N-dimethyl-1H-imidazo[4,5-b]pyrazin-6-amine]: 100 to 10000 nM; `CCOc1cccc(-c2nc3ncc(NCc4ccccc4)nc3n2-c2c(OC)cccc2OC)n1` [Example 13, N-benzyl-1-(2,6-dimethoxyphenyl)-2-(6-ethoxypyridin-2-yl)-1H-imidazo[4,5-b]pyrazin-6-amine]: 1 to 100 nM; `CCOc1cccc(-c2nc3ncc(NC(=O)Cc4ccccc4)nc3n2-c2c(OC)cccc2OC)n1` [Example 14, N-(1-(2,6-dimethoxyphenyl)-2-(6-ethoxypyridin-2-yl)-1H-imidazo[4,5-b]pyrazin-6-yl)-2-phenylacetamide]: 1 to 100 nM.
With `CCOc1cccc(-c2nc3nc(Cl)cnc3n2-c2c(OC)cccc2OC)n1` [Example 15, 5-chloro-1-(2,6-dimethoxyphenyl)-2-(6-ethoxypyridin-2-yl)-1H-imidazo[4,5-b]pyrazine] the figure was 100 to 10000 nM.
Next, `CCOc1cccc(-c2nc3nc(N)cnc3n2-c2c(OC)cccc2OC)n1` [Example 16, 1-(2,6-dimethoxyphenyl)-2-(6-ethoxypyridin-2-yl)-1H-imidazo[4,5-b]pyrazin-5-amine]: 1 to 100 nM; `CCOc1cccc(-c2nc3nc(NC(=O)Cc4ccccc4)cnc3n2-c2c(OC)cccc2OC)n1` [Example 17, N-(1-(2,6-dimethoxyphenyl)-2-(6-ethoxypyridin-2-yl)-1H-imidazo[4,5-b]pyrazin-5-yl)-2-phenylacetamide]: 1 to 100 nM.
Consider `CCOc1cccc(-c2nc3nccnc3n2-c2c(OC)cccc2OC)n1` [Example 18, 1-(2,6-dimethoxyphenyl)-2-(6-ethoxypyridin-2-yl)-1H-imidazo[4,5-b]pyrazine], for which the EC50 lay in the range of 100 to 10000 nM.
Next, `CCOc1cccc(-c2cc3ncc(NS(C)(=O)=O)nc3n2-c2c(OC)cccc2OC)n1` [Example 19, N-(5-(2,6-dimethoxyphenyl)-6-(6-ethoxypyridin-2-yl)-5H-pyrrolo[2,3-b]pyrazin-3-yl)methanesulfonamide]: 100 to 10000 nM; `CCOc1cccc(-c2nc3ncc(NS(C)(=O)=O)cc3n2-c2c(OC)cccc2OC)n1` [Example 20, N-(1-(2,6-dimethoxyphenyl)-2-(6-ethoxypyridin-2-yl)-1H-imidazo[4,5-b]pyridin-6-yl)methanesulfonamide]: 1 to 100 nM.
For `CCOc1cccc(-c2nc3nnc(NS(C)(=O)=O)cc3n2-c2c(OC)cccc2OC)n1` [Example 21, N-(5-(2,6-dimethoxyphenyl)-6-(6-ethoxypyridin-2-yl)-5H-imidazo[4,5-c]pyridazin-3-yl)methanesulfonamide], the EC50 was 1 to 100 nM.
As to `CCOc1cccc(-c2nc3ncc(NS(=O)(=O)C4CC4)nc3n2-c2c(OC)cccc2OC)n1` [Example 22, N-(1-(2,6-dimethoxyphenyl)-2-(6-ethoxypyridin-2-yl)-1H-imidazo[4,5-b]pyrazin-6-yl)cyclopropanesulfonamide], the EC50 lay in the range of 1 to 100 nM.
With `CCOc1cccc(-c2nc3ncc(NS(=O)(=O)c4ccccn4)nc3n2-c2c(OC)cccc2OC)n1` [Example 23, N-(1-(2,6-dimethoxyphenyl)-2-(6-ethoxypyridin-2-yl)-1H-imidazo[4,5-b]pyrazin-6-yl)pyridine-2-sulfonamide] the figure was less than 1 nM; with `CCOc1cccc(-c2nc3ncc(NS(=O)(=O)c4cccnc4)nc3n2-c2c(OC)cccc2OC)n1` [Example 24, N-(1-(2,6-dimethoxyphenyl)-2-(6-ethoxypyridin-2-yl)-1H-imidazo[4,5-b]pyrazin-6-yl)pyridine-3-sulfonamide], 1 to 100 nM.
Next, `CCOc1cccc(-c2nc3ncc(NS(=O)(=O)c4ccncc4)nc3n2-c2c(OC)cccc2OC)n1` [Example 25, N-(1-(2,6-dimethoxyphenyl)-2-(6-ethoxypyridin-2-yl)-1H-imidazo[4,5-b]pyrazin-6-yl)pyridine-4-sulfonamide]: 1 to 100 nM; `CCOc1cccc(-c2nc3ncc(NS(=O)(=O)Cc4cccnc4)nc3n2-c2c(OC)cccc2OC)n1` [Example 26, N-(1-(2,6-dimethoxyphenyl)-2-(6-ethoxypyridin-2-yl)-1H-imidazo[4,5-b]pyrazin-6-yl)-1-(pyridin-3-yl)methanesulfonamide]: 1 to 100 nM.
